The values that follow come from publication PMC4632503, “Targeting of Helicobacter pylori thymidylate synthase ThyX by non-mitotoxic hydroxy-naphthoquinones” (Open Biology, 2015).

pKi: −log10 of the molar value. Entries after “also recorded” stand apart in the source; their conditions may differ. Like-named read-outs stand apart in the source and are kept apart here.

Broadly, the pKi is −log10 of the Ki, conventionally taken in molar units. Usually remaining activity stands for the activity still measured, relative to the control.

Data set [1] concerns H. pylori 26695. The data set can be described thus: bactericidal activity, viable counts (CFU) in liquid culture. Type of data set: cell-based, Helicobacter pylori. As to conditions: exposure up to 24 h, replating on solid media. The protocol: To determine the bactericidal activity of C8-C1 against H. pylori, liquid BHI medium was inoculated with an overnight culture of H. pylori 26695 at an initial OD600 of 0.1. C8-C1 or chloramphenicol, used as bacteriostatic control, were added after 4 h of culture time at final concentrations of 5 and 30 µg ml^−1. To determine the viable counts of surviving bacteria (colony forming units, CFU), aliquots of culture were then plated in triplicate on blood agar plates after 3 and 24 h exposure.

Data set [2] has as its target T1, HpThyX (Helicobacter pylori, UniProt O26061).
T1 construct: His6; made in house; host or cells: Escherichia coli BL21 (plasmid pGL2, pBAD promoter)
The data set can be described thus: NADPH oxidation assay. The settings on record: estimated from slope of IC50 versus dUMP concentration. Type of data set: biochemical. The procedure:
(§1) HpThyX activity was assessed by measuring either deprotonation of [5-^3H]dUMP or NAPDH oxidation activities.
NADPH oxidation assays were performed at 37°C in 96-well plates (Greiner Bio-One). One hundred microlitres of reaction mixture contained HEPES 50 mM (pH 8.6), NaCl 150 mM, FAD 50 µM, β-mercaptoethanol 1.43 mM, NADPH 500 µM and 10 µM of purified HpThyX. dUMP and 2-OH-1,4-NQ concentrations were varied across 12.5–200 µM and 0.3–100 µM, respectively. Microtitre plates were prepared and transferred to the microplate reader Chameleon II (Hidex). The reactions were started by automatically injecting NADPH into individual wells and ThyX activity was determined by following a decrease in absorbance at 340 nm. A molar extinction coefficient of 6220 M^−1 cm^−1 at 340 nm (ε340) was used to quantify NADPH oxidation. Samples with added DMSO and enzyme-free reactions were used as positive and negative controls, respectively.

Data set [3] can be described thus: tolerance of orogastric treatment in infected mice. The class given is in vivo, NMRI mice. The settings on record: orogastric three times a day, 0.375 mg mouse day^−1, one week; for effect on body or stomach weight: data not shown. The protocol: (§2) NMRI-specific pathogen-free mice (Charles River Laboratories) were orogastrically inoculated with 10^8 CFU of the H. pylori mouse-adapted strain SS1, prepared in 100 μl of peptone broth. Four groups of six to eight mice were infected by H. pylori strain SS1. Earlier experiments have established that after one week, colonization of mice is fully established. A negative control group of five mice was inoculated with peptone broth alone and was not colonized by H. pylori. One week after infection, three groups of mice were treated orogastrically three times a day with 500 µl of either compound 010-C, 010-E or 010-I dissolved in 2% β-cyclodextrin at 0.25 mg ml^−1 (0.375 mg mouse d^−1) during one week. As a control, the fourth group of mice was treated orogastrically three times a day by the same amount of 2% β-cyclodextrin (17.6 mM), the vehicle of the compounds. […] This average size is in agreement with the average size of β-cyclodextrin particles that self-aggregate in water at a concentration of 12 mM [39]. After treatment, viable H. pylori cells, colonizing the mouse stomach, were enumerated by culture of serial dilutions of homogenized tissue on blood agar plates containing bacitracin (200 μg ml^−1) and nalidixic acid (10 μg ml^−1) as in [40].

Data set [4] deals with AGS cells. The data set can be described thus: mitotoxicity, resazurin reduction. Type of data set: cell-based, human. The settings on record: for mitotoxicity: 0.78 to 50 μg ml^−1, 4 h treatment; for effect on mitochondrial metabolism: low concentrations, resazurin reduction. The procedure:
Mitochondrial toxicity (mitotoxicity) was assessed by measuring resazurin (7-hydroxy-3H-phenoxazin-3-one 10-oxide) reduction by following absorption changes at 570 nm (Mitochondrial Viability Assay; Abcam). Resazurin is an indicator dye that reports on oxidation–reduction reactions taking place in the mitochondria of living cells. AGS cells (≅2.5 × 10^5cells well^−1) cultured in a DMEM galactose/glutamine-supplemented medium were seeded in sterile white-walled 96-well clear-bottom microplates and treated for 4 h with different doses of 2-OH-1,4-NQ compounds ranging from 0.78 to 50 μg ml^−1. Addition of the stain solution was followed by a further 4 h incubation at 37°C (5% CO2, 90% humidity) and A570 was measured. Rotenone, an inhibitor of the mitochondrial respiratory chain complex I, was used as a positive control.
Background: Alamar Blue is a resazurin reagent that responds to reducing activity.

The target in data set [5] is T1, HpThyX. The data set can be described thus: tritium release (deprotonation) assay of [5-3H]dUMP. Type of data set: biochemical. The settings on record: for remaining activity at 100 µM: 20 min, semi-quantitative deprotonation assay, lower = stronger inhibition, read-out: inhibition against ThyX (% remaining activity relative to control); for dTMP-forming activity: quantitative tritium release assay, 100 μM compound, 10 μM ThyX enzyme. The procedure: as §1
In the tritium release (deprotonation) assays, typical reactions contained 10 mM MgCl2, 10% (v/v) glycerol, 500 µM FAD, 2 mM NADPH, 1 mM CH2H4Folate and 10 mM β-mercaptoethanol in 50 mM HEPES (pH 8). Different concentrations of dUMP were also included in the reaction mixtures. The specific activity of tritiated [5-^3H]dUMP (diammonium salt) stock was 15–30 Ci mmol^−1 (Moravek Biochemicals, CA, USA). 2-OH-1,4-NQ derivatives were prepared at 100 µM in 1% DMSO. Reactions were initiated by adding the enzyme (10 µM) and were stopped after 20 min incubation at 37°C.

The test system of data set [6] is AGS cells. The experiment in a line: cytotoxicity, LDH release. Type of data set: cell-based, human. The settings on record: 0.78 to 50 μg ml^−1, 24 h. The procedure: Cytotoxicity of the 2-OH-1,4-NQ derivatives was assessed by measuring lactate dehydrogenase (LDH) release following manufacturer's instructions (Cytotoxicity Detection Kit; Roche Applied Sciences). Briefly, AGS cells (human gastric adenocarcinoma cell line; ATCC Catalog no. CRL-1739TM) were cultured in Ham's F-12 K medium containing 1% of FBS. A total of 3 × 10^4 cells were added per well in a sterile 96-well tissue culture plate. Cells were then treated with different doses of 2-OH-1,4-NQ compounds ranging from 0.78 to 50 μg ml^−1. After a 24 h incubation at 37°C (5% CO2, 90% humidity), the microplates were centrifuged at 250g for 10 min, and the supernatants were carefully removed and transferred into optically clear 96-well microplates (Greiner Bio-One). The dye solution containing iodotetrazolium chloride and sodium lactate was then added to each well to quantify the amount of LDH released into the extracellular medium. LDH was quantified by measuring the A490 using a PowerWave Microplate Spectrophotometer (BioTek).
On the technique in general: LDH leaks from cells whose membrane has failed.

Data set [7] relates to H. pylori strain 26695. The data set can be described thus: MIC, broth microdilution test, strain 26695. As to conditions: Helicobacter pylori. Type of data set: cell-based. The protocol:
(§3) The in vitro anti-bacterial activity of 2-OH-1,4-NQ compounds was assessed against the 26695 and SS1 strains of H. pylori. DMSO was used as control in all experiments.
(§4) Disc diffusion tests were performed in triplicate, including a DMSO-only control on each plate, as specified in the electronic supplementary material. Minimal inhibitory concentrations (MICs) were determined using a broth microdilution test in 24-well microtitre plates. For test inocula, an overnight preculture of H. pylori strains 26695 and SS1 was diluted to an OD600 of approximately 0.1 and 0.5 ml of this suspension was transferred to each well. Ten microlitres of twofold serial dilutions of each compound in DMSO, ranging in concentration from 0.625 to 20 µg ml^−1, were added and the covered plates were incubated for 24 h at 37°C with orbital shaking at 140 r.p.m. under microaerophilic conditions. The MIC was determined as the lowest compound concentration resulting in full growth inhibition after 24 h of incubation. All the tests were done in triplicate, including cell-free and DMSO-only controls.
In general terms: In broth dilution the organism is exposed to a series of concentrations in liquid medium.

The subject of data set [8] is H. pylori strain SS1. The data set can be described thus: MIC, broth microdilution test, strain SS1. The class given is cell-based. As to conditions: Helicobacter pylori, 24 h, read-out: minimal inhibitory concentration (MIC) strain SS1. The procedure: as §3, §4
For data set [9], the system named is H. pylori strain SS1. The data set can be described thus: mouse infection and treatment, gastric colonization. Type of data set: in vivo, Helicobacter pylori. The settings on record: NMRI mice, orogastric three times a day, 0.375 mg mouse day^−1 (17 mg kg^−1), one week. The protocol: as §2
Data set [10] deals with H. pylori strains 26695 and SS1. The experiment in a line: disc diffusion test. Type of data set: cell-based, Helicobacter pylori. The settings on record: 10 μg per disc, 72 h. The procedure:
as §4
Figure S2. Disk diffusion antibiograms of H. pylori strains 26695 (A) and SS1 (B) with the 2-OH-1,4-NQ compounds. To perform these disc diffusion tests, an overnight culture of the H. pylori strain was diluted to an OD600 ≈ 0.01. Blood agar plates were flooded with 2 ml of the diluted suspension. […] The diameters of each growth inhibition zone were measured on the Petri dish. […]
subtracting the disc diameter (6 mm) from the measured zone. […]

Setting [11] is: 26695, 24 h, full growth inhibition, read-out: minimal inhibitory concentration (MIC) strain 26695.
Setting [12] is: 26695, 24 h, value in brackets, read-out: minimal inhibitory concentration (MIC) strain 26695.

T1 sequence (O26061 whole entry): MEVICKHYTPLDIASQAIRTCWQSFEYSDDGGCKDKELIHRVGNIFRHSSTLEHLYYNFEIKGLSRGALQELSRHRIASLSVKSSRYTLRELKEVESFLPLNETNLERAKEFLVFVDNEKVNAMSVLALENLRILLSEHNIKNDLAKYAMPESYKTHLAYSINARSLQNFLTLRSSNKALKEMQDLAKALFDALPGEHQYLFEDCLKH

`O=C(N[C@H](CO)[C@H](O)c1ccc([N+](=O)[O-])cc1)C(Cl)Cl` [chloramphenicol, reference compound]: the “kind of anti-microbial activity / viable cells after exposure” value in [1] is on record as “bacteriostatic”.

Take `O=C1C(O)=C(Cc2ccco2)C(=O)c2ccccc21` [010-C]: the pKi in [2] was 7.55. Moreover, in [3], the tolerance in mice entry is listed as “tolerated in mice” and the “effect on body or stomach weight” value is given as “None of the aforementioned treatments affected either the body or stomach weight”. Besides, in data set [4], the mitotoxicity entry is “non-mitotoxic” and the “effect on mitochondrial metabolism” value was “activated the mitochondrial metabolism”. In [5], the remaining activity at 100 µM was found to be 76.4% and the dTMP-forming activity result is reported as “suppressed the dTMP-forming activity”. The cytotoxicity result in data set [6] was “non-cytotoxic”. Further, the MIC in data set [7] (setting [11]) is 10 µg/mL. Moreover, in [7] (setting [12]), the MIC came to 39.3 µM. Besides, in data set [8] (full growth inhibition), the MIC is 10 µg/mL. The MIC in data set [8] (value in brackets) came to 39.3 µM.

Take `CCCCC1=C(O)C(=O)c2ccccc2C1=O` [010-I]: the pKi in [2] was 6.59. Moreover, in [9], the “decrease in the colonization loads (geometric means) versus vehicle” value came out at 1.22 log and the “decrease in the colonization loads versus vehicle” value is 17 fold. Besides, in data set [3], the tolerance in mice result is “tolerated in mice” and the “effect on body or stomach weight” value is “None of the aforementioned treatments affected either the body or stomach weight”. Also, in data set [4], the mitotoxicity result is “non-mitotoxic” and the “effect on mitochondrial metabolism” value is “activated the mitochondrial metabolism”. Further, in [5], the remaining activity at 100 µM was 64.3% and the dTMP-forming activity result is on record as “suppressed the dTMP-forming activity”. Further, the cytotoxicity entry in data set [6] is listed as “non-cytotoxic”. For the same compound, in data set [7] (setting [11]), the MIC is 10 µg/mL. Further, in data set [7] (setting [12]), the MIC came out at 43.4 µM. Besides, in data set [8] (full growth inhibition), the MIC was found to be 10 µg/mL. The MIC in [8] (value in brackets) stood at 43.4 µM.

Regarding `O=C1C(Cl)=C(Nc2ccc(F)cc2)C(=O)c2ccccc21` [010-G], the “activity in disc diffusion tests” value in data set [10] is “inactive”. Also, the remaining activity at 100 µM in [5] is 21.1%. In data set [6], the cytotoxicity result is “cytotoxic”. In addition, the MIC in data set [7] (setting [11]) is 0.625 µg/mL; in data set [7] (setting [12]), 2.07 µM; in data set [7] (liquid cultures, strains 26695 and SS1 not distinguished, read-out: MIC), roughly 0.625 µg/mL; in data set [8] (full growth inhibition), 0.625 µg/mL; in data set [8] (value in brackets) it was 2.07 µM.

Consider `COc1ccc(CC2=C(O)C(=O)c3ccccc3C2=O)cc1` [007-A, 2-hydroxy-3-(4-methoxybenzyl)-1,4-naphthoquinone], for which the “kind of anti-microbial activity / viable cells after exposure” value in data set [1] (listed as C8-C1) is recorded as “no viable cells were recovered; also recorded: bactericidal”. Moreover, the pKi in data set [2] was 6.44. Also, the mitotoxicity entry in data set [4] is recorded as “non-mitotoxic”. In addition, the “effect on mitochondrial metabolism” value in [4] is reported as “activated the mitochondrial metabolism”. In addition, the remaining activity at 100 µM in data set [5] is 38.5%. For the same compound, in data set [5], the dTMP-forming activity result is “suppressed the dTMP-forming activity”. In data set [6], the cytotoxicity result is reported as “non-cytotoxic”. Also, the MIC in [7] (setting [11]) is 10 µg/mL; in data set [7] (setting [12]) it was 34 µM; in data set [8] (full growth inhibition), 10 µg/mL; in data set [8] (value in brackets), 34 µM.
